# Measurements reported in US12577227B2, “WDR5 inhibitors and modulators” (Vanderbilt University, priority 2019, dated 2026).
# Tested on: MV4:11 human cancer cell lines
# Test: Cellular viability / anti-proliferative activity (CellTiter-Glo)
# Format: cell-based
# Conditions: MV4-11, 120 h, MV-4-11 cells, 5 day protocol, mean of minimum two replicates, read-out: GI50 on cellular proliferation of MV4:11 human cancer cell lines
# Method: Cellular Viability of Human Tumor Cell Lines
# Anti-Proliferative Activity Using MLL-Harboring Cell Lines.
# MV-4-11 and K562 cells are grown in IMDM media supplemented with 10% FBS and […], Molm-13 cells are cultured in RPMI-1640 media supplemented with 10% FBS and 1% o penicillin/streptomycin. Viability assays are performed by dispensing 200 cells at 7200 cells/mL into each well of an opaque 384-well plate and adding compounds at the indicated concentrations in a final volume of 32 μL and a final concentration of DMSO of 0.3% for all samples. A certain range of compound concentrations is made through a series of 2-fold dilutions starting 30 μM at the highest, total 22 dilutions. After a set incubation period, 5 day protocol, the viability of cells in each well is assessed using the CellTiter-Glo assay (Promega), read on a 96 Microplane Luminometer (Cytation 3, BioTek). Serial dilutions of each cell type are performed in all assays to generate standard curves and the final densities of cells are determined within the dynamic range of the instrument. GI50 values are calculated based on XLfit software (IDBS, Guildford, UK) with Sigmoidal Dose-Response Model. Each compound is tested in minimum of two replicates. Data are expressed as mean.
row,SMILES,GI50 [nM]
1,"Cc1cc(C)nc(CN2CCOc3c(cc(Cn4ccnc4C)cc3-c3cc(C)c(F)cc3C)C2=O)c1 [Example 51, 4-((4,6-Dimethylpyridin-2-yl)methyl)-9-(4-fluoro-2,5-dimethylphenyl)-7-((2-methyl-1H-imidazol-1-yl)methyl)-3,4-dihydrobenzo[f][1,4]oxazepin-5(2H)-one]",79
2,"COc1cc(CN2CCOc3c(cc(Cn4ccccc4=N)cc3-c3ccc(F)cc3C)C2=O)cc(OC)c1 [Example 8, 4-(3,5-Dimethoxybenzyl)-9-(4-fluoro-2-methylphenyl)-7-((2-iminopyridin-1(2H)-yl)methyl)-3,4-dihydrobenzo[f][1,4]oxazepin-5(2H)-one]",355
3,"CCc1cc(OC)c2nccc(N3CCOc4c(cc(Cn5ccnc5)cc4-c4cn(C)nc4C(F)(F)F)C3=O)c2c1 [Example 67, 7-((1H-imidazol-1-yl)methyl)-4-(6-ethyl-8-methoxyquinolin-4-yl)-9-(1-methyl-3-(trifluoromethyl)-1H-pyrazol-4-yl)-3,4-dihydrobenzo[f][1,4]oxazepin-5(2H)-one]",321
4,"Cc1cc(C)nc(CN2CCOc3c(cc(Cn4ccnc4C)cc3-c3cc(C)ccc3C)C2=O)c1 [Example 49, 9-(2,5-Dimethylphenyl)-4-((4,6-dimethylpyridin-2-yl)methyl)-7-((2-methyl-1H-imidazol-1-yl)methyl)-3,4-dihydrobenzo[f][1,4]oxazepin-5(2H)-one]",45
5,"COc1ccc2nccc(N3CCOc4c(cc(Cn5ccnc5C)cc4-c4cn(C)nc4C(F)(F)F)C3=O)c2c1 [Example 58, 4-(6-Methoxyquinolin-4-yl)-7-((2-methyl-1H-imidazol-1-yl)methyl)-9-(1-methyl-3-(trifluoromethyl)-1H-pyrazol-4-yl)-3,4-dihydrobenzo[f][1,4]oxazepin-5(2H)-one]",77
6,"COc1cc(Cn2c(C)nc3c(-c4ccc(F)cc4C)cc(CNC4=NCCN4)cc3c2=O)cc(OC)c1 [Example 21, 6-(((4,5-Dihydro-1H-imidazol-2-yl)amino)methyl)-3-(3,5-dimethoxybenzyl)-8-(4-fluoro-2-methylphenyl)-2-methylquinazolin-4(3H)-one]",194
7,"COc1cnc2cccc(N3CCOc4c(cc(Cn5ccnc5)cc4-c4cn(C)nc4C(F)(F)F)C3=O)c2c1 [Example 70, 7-((1H-imidazol-1-yl)methyl)-4-(3-methoxyquinolin-5-yl)-9-(1-methyl-3-(trifluoromethyl)-1H-pyrazol-4-yl)-3,4-dihydrobenzo[f][1,4]oxazepin-5(2H)-one]",306
8,"COc1cc(Cn2cnc3c(-c4ccc(F)cc4C)cc(Cn4ccn(C)c4=N)cc3c2=O)cc(OC)c1 [Example 1, 3-(3,5-Dimethoxybenzyl)-8-(4-fluoro-2-methylphenyl)-6-((2-imino-3-methyl-2,3-dihydro-1H-imidazol-1-yl)methyl)quinazolin-4(3H)-one]",150
9,"COc1ccnc([C@H](C)N2CCOc3c(cc(Cn4ccnc4C)cc3-c3cc(C)ccc3C)C2=O)c1 [Example 56, (S)-9-(2,5-Dimethylphenyl)-4-(1-(4-methoxypyridin-2-yl)ethyl)-7-((2-methyl-1H-imidazol-1-yl)methyl)-3,4-dihydrobenzo[f][1,4]oxazepin-5(2H)-one]",37
10,"COc1cc(Cn2cnc3c(-c4ccc(F)cc4C)cc(Cn4cnn(C)c4=N)cc3c2=O)cc(OC)c1 [Example 18, 3-(3,5-Dimethoxybenzyl)-8-(4-fluoro-2-methylphenyl)-6-((5-imino-1-methyl-1,5-dihydro-4H-1,2,4-triazol-4-yl)methyl)quinazolin-4(3H)-one]",672
11,"COc1cc(CN2CCOc3c(cc(Cn4cnn(C)c4=N)cc3-c3cn(C)nc3C(F)(F)F)C2=O)cc(OC)c1 [Example 15, 4-(3,5-Dimethoxybenzyl)-7-((5-imino-1-methyl-1,5-dihydro-4H-1,2,4-triazol-4-yl)methyl)-9-(1-methyl-3-(trifluoromethyl)-1H-pyrazol-4-yl)-3,4-dihydrobenzo[f][1,4]oxazepin-5(2H)-one]",101
12,"Cc1cc(C)nc(CN2CCOc3c(cc(Cn4cnn(C)c4=N)cc3-c3cn(C)nc3C(F)(F)F)C2=O)c1 [Example 31, 4-((4,6-dimethylpyridin-2-yl)methyl)-7-((5-imino-1-methyl-1,5-dihydro-4H-1,2,4-triazol-4-yl)methyl)-9-(1-methyl-3-(trifluoromethyl)-1H-pyrazol-4-yl)-3,4-dihydrobenzo[f][1,4]oxazepin-5(2H)-one]",231
13,"COc1cc(CN2CCOc3c(cc(CNc4ccccn4)cc3-c3ccc(F)cc3C)C2=O)cc(OC)c1 [Example 10, 4-(3,5-Dimethoxybenzyl)-9-(4-fluoro-2-methylphenyl)-7-((pyridin-2-ylamino)methyl)-3,4-dihydrobenzo[f][1,4]oxazepin-5(2H)-one]",> 940
14,"COc1cc(CN2CCOc3c(cc(CNc4nocc4C)cc3-c3ccc(F)cc3C)C2=O)cc(OC)c1 [Example 7, 4-(3,5-Dimethoxybenzyl)-9-(4-fluoro-2-methylphenyl)-7-(((4-methylisoxazol-3-yl)amino)methyl)-3,4-dihydrobenzo[f][1,4]oxazepin-5(2H)-one]",> 940
15,"COc1ccc2nc(C)cc(N3CCOc4c(cc(Cn5ccnc5)cc4-c4cn(C)nc4C(F)(F)F)C3=O)c2c1 [Example 68, 7-((1H-imidazol-1-yl)methyl)-4-(6-methoxy-2-methylquinolin-4-yl)-9-(1-methyl-3-(trifluoromethyl)-1H-pyrazol-4-yl)-3,4-dihydrobenzo[f][1,4]oxazepin-5(2H)-one]",100
16,"COc1cc(CN2CC(=O)Nc3c(cc(Cn4ccnc4C)cc3-c3ccc(F)cc3C)C2=O)cc(OC)c1 [Example 28, 4-(3,5-Dimethoxybenzyl)-9-(4-fluoro-2-methylphenyl)-7-((2-methyl-1H-imidazol-1-yl)methyl)-3,4-dihydro-1H-benzo[e][1,4]diazepine-2,5-dione]",232
17,"Cc1ccnc(CN2CCOc3c(cc(Cn4ccnc4C)cc3-c3cn(C)nc3C(F)(F)F)C2=O)c1 [Example 27, 7-((2-Methyl-1H-imidazol-1-yl)methyl)-9-(1-methyl-3-(trifluoromethyl)-1H-pyrazol-4-yl)-4-((4-methylpyridin-2-yl)methyl)-3,4-dihydrobenzo[f][1,4]oxazepin-5(2H)-one]",192
18,"COc1cc(CN2C[C@@H](C)Oc3c(cc(Cn4ccnc4C)cc3-c3ccc(F)cc3C)C2=O)cc(OC)c1 [Example 34, (R)-4-(3,5-Dimethoxybenzyl)-9-(4-fluoro-2-methylphenyl)-2-methyl-7-((2-methyl-1H-imidazol-1-yl)methyl)-3,4-dihydrobenzo[f][1,4]oxazepin-5(2H)-one]",1470
19,"Cc1ccnc(CN2CCOc3c(cc(Cn4cnn(C)c4=N)cc3-c3cn(C)nc3C(F)(F)F)C2=O)c1 [Example 32, 7-((5-imino-1-methyl-1,5-dihydro-4H-1,2,4-triazol-4-yl)methyl)-9-(1-methyl-3-(trifluoromethyl)-1H-pyrazol-4-yl)-4-((4-methylpyridin-2-yl)methyl)-3,4-dihydrobenzo[f][1,4]oxazepin-5(2H)-one]",775
20,"Cc1cc(C)nc(CN2CCOc3c(cc(Cn4ccnc4C)cc3-c3ccc(F)cc3C)C2=O)c1 [Example 41, 4-((4,6-Dimethylpyridin-2-yl)methyl)-9-(4-fluoro-2-methylphenyl)-7-((2-methyl-1H-imidazol-1-yl)methyl)-3,4-dihydrobenzo[f][1,4]oxazepin-5(2H)-one]",985
21,"COc1ccnc([C@H](C)N2CCOc3c(cc(Cn4ccnc4C)cc3-c3ccc(F)cc3C)C2=O)c1 [Example 50, (S)-9-(4-Fluoro-2-methylphenyl)-4-(1-(4-methoxypyridin-2-yl)ethyl)-7-((2-methyl-1H-imidazol-1-yl)methyl)-3,4-dihydrobenzo[f][1,4]oxazepin-5(2H)-one]",50
22,"COc1cc(CN2CCOc3c(cc(Cn4cnn(C)c4=N)cc3-c3ccc(F)cc3C)C2=O)cc(OC)c1 [Example 6, 4-(3,5-Dimethoxybenzyl)-9-(4-fluoro-2-methylphenyl)-7-((5-imino-1-methyl-1,5-dihydro-4H-1,2,4-triazol-4-yl)methyl)-3,4-dihydrobenzo[f][1,4]oxazepin-5(2H)-one]",86
23,"CCn1cc(-c2cc(Cn3ccnc3)cc3c2NC(=O)CN([C@H](c2cc(OC)ccn2)C2CC2)C3=O)c(C(F)(F)F)n1 [Example 65, (S)-7-((1H-imidazol-1-yl)methyl)-4-(cyclopropyl(4-methoxypyridin-2-yl)methyl)-9-(1-ethyl-3-(trifluoromethyl)-1H-pyrazol-4-yl)-3,4-dihydro-1H-benzo[e][1,4]diazepine-2,5-dione]",290
24,"Cc1cc(C)nc(CN2CCOc3c(cc(Cn4ccnc4C)cc3-c3sc(C)nc3C)C2=O)c1 [Example 43, 4-((4,6-Dimethylpyridin-2-yl)methyl)-9-(2,4-dimethylthiazol-5-yl)-7-((2-methyl-1H-imidazol-1-yl)methyl)-3,4-dihydrobenzo[f][1,4]oxazepin-5(2H)-one]",159
25,"CCn1cc(-c2cc(Cn3ccnc3C)cc3c2OCCN([C@H](c2cc(OC)ccn2)C2CC2)C3=O)c(C(F)(F)F)n1 [Example 60, (S)-4-(Cyclopropyl(4-methoxypyridin-2-yl)methyl)-9-(1-ethyl-3-(trifluoromethyl)-1H-pyrazol-4-yl)-7-((2-methyl-1H-imidazol-1-yl)methyl)-3,4-dihydrobenzo[f][1,4]oxazepin-5(2H)-one]",111
